Activity calls are given as the source filed them. No cut-off for these calls is given here.
What was measured:
[1] = test system: MDA-MB-231; test: Induction of apoptosis in human MDA-MB-231 cells assessed as necrotic cells at 9 uM incubated for 48 hrs by Annexin V-FITC/PI staining by flow cytometric analysis (reference value: 15%); assay type: functional
[2] = organism: Homo sapiens; test: Selectivity ratio of IC50 for inhibition of human HDAC1 to IC50 for inhibition of human HDAC3
[3] = Intrinsic clearance in mouse liver microsomes at 3 uM preincubated for 5 mins followed by NADPH addition and measured up to 45 mins by LC-MS/MS analysis; assay type: ADME, Microsome; settings: read-out: CLH
[4] = biological target: Histone deacetylase 8 (Homo sapiens, UniProt Q9BY41); test: Inhibition of human HDAC8 using Arg-His-Lys (Ac)-Lys (Ac) as substrate incubated for 2 hrs by fluorescence assay
Chain of Histone deacetylase 8 (Q9BY41 whole entry): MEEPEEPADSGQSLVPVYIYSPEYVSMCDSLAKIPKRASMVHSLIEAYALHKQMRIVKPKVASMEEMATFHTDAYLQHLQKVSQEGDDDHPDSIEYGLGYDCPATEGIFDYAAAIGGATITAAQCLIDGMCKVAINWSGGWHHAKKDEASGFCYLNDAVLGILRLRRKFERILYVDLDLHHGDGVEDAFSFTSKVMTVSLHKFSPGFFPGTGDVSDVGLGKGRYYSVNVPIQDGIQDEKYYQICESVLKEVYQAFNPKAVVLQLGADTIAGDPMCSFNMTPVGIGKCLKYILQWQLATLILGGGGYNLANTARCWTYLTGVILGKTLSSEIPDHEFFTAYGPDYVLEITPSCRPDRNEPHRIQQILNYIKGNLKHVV

[5] = biological target: Histone deacetylase 9 (Homo sapiens) (UniProt Q9UKV0); test: Inhibition of human HDAC9 at 10 uM using Acetyl-Lys (trifluoroacetyl)-AMC) as substrate incubated for 2 hrs by fluorescence assay relative to control
Chain of Histone deacetylase 9 (Homo sapiens) (Q9UKV0 whole entry): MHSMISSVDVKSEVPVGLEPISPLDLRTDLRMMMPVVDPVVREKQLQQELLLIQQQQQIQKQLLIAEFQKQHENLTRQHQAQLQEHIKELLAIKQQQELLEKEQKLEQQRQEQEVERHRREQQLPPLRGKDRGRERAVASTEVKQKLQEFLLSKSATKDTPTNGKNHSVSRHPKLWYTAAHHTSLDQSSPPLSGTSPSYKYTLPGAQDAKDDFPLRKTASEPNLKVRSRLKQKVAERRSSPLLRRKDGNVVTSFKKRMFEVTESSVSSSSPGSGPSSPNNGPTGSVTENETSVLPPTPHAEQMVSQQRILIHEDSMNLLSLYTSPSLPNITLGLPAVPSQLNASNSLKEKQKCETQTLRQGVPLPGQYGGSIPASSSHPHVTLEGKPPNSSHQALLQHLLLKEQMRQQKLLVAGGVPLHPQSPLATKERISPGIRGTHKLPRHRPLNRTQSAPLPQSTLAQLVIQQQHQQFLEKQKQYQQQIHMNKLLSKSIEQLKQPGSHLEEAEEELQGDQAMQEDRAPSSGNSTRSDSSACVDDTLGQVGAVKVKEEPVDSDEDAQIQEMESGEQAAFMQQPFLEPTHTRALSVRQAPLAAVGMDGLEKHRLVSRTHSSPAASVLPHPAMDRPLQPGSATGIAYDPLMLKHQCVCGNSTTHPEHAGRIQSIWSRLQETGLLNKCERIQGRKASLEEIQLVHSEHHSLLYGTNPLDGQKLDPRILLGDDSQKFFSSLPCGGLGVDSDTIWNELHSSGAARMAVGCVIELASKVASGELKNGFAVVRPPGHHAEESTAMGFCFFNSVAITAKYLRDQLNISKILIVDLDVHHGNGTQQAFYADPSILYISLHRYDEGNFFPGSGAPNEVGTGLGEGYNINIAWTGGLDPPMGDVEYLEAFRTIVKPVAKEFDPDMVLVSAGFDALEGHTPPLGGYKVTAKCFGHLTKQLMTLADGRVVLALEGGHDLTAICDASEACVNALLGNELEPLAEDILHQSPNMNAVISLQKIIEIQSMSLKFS

[6] = Therapeutic Index, ratio of EC50 for human AC10 cells to EC50 for human MDA-MB-231 cells; assay type: toxicity; settings: AC10 cells versus MDA-MB-231 cells, read-out: Ratio EC50
[7] = test system: MDA-MB-231; test: Induction of apoptosis in human MDA-MB-231 cells assessed as late apoptotic cells at 9 uM incubated for 48 hrs by Annexin V-FITC/PI staining by flow cytometric analysis (reference value: 3%); assay type: functional
[8] = test system: KMS-12-BM; test: Antiproliferative activity against human KMS-12-BM cells incubated for 48 hrs by CellTiter-Glo luminescent cell viability assay; assay type: functional, cell-based
[9] = organism: Homo sapiens; test: Inhibition of human EZH2 complex at 100 uM using core histone as substrate incubated for 1 hr in presence of [3H]-SAM by filter binding method relative to control
[10] = biological target: Histone deacetylase 11 (Homo sapiens, UniProt Q96DB2); test: Inhibition of human HDAC11 using Acetyl-Lys (trifluoroacetyl)-AMC) as substrate incubated for 2 hrs by fluorescence assay
Chain of Histone deacetylase 11 (Q96DB2 whole entry): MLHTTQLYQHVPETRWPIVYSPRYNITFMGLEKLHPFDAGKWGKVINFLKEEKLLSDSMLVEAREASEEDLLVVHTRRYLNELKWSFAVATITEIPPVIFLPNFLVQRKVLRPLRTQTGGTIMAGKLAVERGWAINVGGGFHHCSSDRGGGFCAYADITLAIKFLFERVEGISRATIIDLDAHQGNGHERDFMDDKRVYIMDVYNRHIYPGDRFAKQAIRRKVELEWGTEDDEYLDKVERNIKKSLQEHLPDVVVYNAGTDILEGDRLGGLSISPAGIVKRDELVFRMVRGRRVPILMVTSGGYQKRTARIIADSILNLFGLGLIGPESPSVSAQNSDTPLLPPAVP

[11] = test system: MCF7; test: Antiproliferative activity against human MCF7 cells incubated for 72 hrs by MTT assay; assay type: functional, cell-based; settings: MCF7, 72 h
[12] = test system: NCI-H929; test: Antiproliferative activity against human NCI-H929 cells incubated for 48 hrs by CellTiter-Glo luminescent cell viability assay; assay type: functional, cell-based; settings: NCI-H929, 48 h
[13] = biological target: T1, Protein deacetylase HDAC6 (Homo sapiens, UniProt Q9UBN7); test: Inhibition of human HDAC6 using Arg-His-Lys-Lys (Ac) as substrate incubated for 2 hrs by fluorescence assay
T1 sequence (Q9UBN7 whole entry): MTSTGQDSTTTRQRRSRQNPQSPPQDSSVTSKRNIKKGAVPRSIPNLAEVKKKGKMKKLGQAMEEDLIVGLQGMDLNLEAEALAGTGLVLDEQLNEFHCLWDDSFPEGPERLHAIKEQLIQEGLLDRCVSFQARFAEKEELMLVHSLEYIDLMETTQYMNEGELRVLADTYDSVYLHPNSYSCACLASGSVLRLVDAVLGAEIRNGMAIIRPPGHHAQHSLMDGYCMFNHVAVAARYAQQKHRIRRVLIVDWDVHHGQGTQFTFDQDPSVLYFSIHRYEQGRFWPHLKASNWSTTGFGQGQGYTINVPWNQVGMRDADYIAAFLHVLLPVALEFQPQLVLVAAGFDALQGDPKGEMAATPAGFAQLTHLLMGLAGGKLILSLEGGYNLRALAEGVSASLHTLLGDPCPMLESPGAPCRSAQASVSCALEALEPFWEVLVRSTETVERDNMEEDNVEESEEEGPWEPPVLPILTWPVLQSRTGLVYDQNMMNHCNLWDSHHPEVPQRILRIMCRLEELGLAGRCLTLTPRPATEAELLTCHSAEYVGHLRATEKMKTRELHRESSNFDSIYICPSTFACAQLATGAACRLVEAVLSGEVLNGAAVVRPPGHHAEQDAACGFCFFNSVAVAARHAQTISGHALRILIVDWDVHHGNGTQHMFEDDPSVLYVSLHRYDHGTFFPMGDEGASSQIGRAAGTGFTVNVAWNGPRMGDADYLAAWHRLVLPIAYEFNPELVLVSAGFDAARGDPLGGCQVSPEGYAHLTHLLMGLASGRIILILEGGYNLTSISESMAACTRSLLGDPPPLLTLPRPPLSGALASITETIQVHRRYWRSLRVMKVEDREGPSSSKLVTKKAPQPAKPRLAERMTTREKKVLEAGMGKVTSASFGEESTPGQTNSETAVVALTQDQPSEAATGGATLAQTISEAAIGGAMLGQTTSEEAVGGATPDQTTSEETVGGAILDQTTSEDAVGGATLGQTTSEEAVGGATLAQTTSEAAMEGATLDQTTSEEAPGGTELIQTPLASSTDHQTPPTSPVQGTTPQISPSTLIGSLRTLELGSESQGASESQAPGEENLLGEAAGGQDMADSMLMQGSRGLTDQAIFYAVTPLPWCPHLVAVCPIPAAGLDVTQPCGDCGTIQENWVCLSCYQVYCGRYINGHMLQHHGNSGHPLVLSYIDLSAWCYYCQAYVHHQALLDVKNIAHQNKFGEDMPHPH

[14] = biological target: Histone deacetylase 5 (Homo sapiens) (UniProt Q9UQL6); test: Inhibition of human HDAC5 at 10 uM using Acetyl-Lys (trifluoroacetyl)-AMC) as substrate incubated for 2 hrs by fluorescence assay relative to control
Chain of Histone deacetylase 5 (Homo sapiens) (Q9UQL6 whole entry): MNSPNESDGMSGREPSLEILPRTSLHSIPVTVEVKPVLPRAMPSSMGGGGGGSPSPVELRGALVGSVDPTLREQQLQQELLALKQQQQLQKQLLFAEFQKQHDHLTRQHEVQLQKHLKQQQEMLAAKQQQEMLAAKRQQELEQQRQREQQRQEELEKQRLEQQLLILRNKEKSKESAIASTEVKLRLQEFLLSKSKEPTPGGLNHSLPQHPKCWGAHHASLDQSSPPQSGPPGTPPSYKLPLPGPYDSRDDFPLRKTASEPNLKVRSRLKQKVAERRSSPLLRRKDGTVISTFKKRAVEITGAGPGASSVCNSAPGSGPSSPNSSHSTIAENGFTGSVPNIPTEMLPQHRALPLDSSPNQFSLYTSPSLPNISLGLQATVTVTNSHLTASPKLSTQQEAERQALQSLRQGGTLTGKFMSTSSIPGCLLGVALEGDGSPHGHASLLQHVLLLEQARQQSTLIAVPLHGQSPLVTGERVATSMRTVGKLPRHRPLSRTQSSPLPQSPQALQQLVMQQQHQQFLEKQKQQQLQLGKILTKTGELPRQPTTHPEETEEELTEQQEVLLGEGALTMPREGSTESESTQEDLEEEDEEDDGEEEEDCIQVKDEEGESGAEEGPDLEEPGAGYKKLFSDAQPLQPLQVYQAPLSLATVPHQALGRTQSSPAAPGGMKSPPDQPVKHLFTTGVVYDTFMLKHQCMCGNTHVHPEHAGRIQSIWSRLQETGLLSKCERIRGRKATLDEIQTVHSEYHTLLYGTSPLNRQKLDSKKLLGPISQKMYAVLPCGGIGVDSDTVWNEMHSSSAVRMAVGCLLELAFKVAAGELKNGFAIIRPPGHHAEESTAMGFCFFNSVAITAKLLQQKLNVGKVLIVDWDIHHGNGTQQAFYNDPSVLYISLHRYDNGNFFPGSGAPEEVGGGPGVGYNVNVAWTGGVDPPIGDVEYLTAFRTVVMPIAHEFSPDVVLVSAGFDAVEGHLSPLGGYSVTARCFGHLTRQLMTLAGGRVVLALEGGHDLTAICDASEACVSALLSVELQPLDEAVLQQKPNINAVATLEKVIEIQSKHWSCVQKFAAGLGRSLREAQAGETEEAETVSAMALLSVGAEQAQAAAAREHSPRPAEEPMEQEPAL

[15] = test system: MDA-MB-231; test: Induction of apoptosis in human MDA-MB-231 cells assessed as early apoptotic cells at 6 uM incubated for 48 hrs by Annexin V-FITC/PI staining by flow cytometric analysis (reference value: 5%); assay type: functional
[16] = test system: Plasmodium falciparum; test: microbe, parasite or virus in culture; assay type: functional, organism-based; settings: K1, 48 h
Description: Antimalarial activity against ring stage Plasmodium falciparum K1 incubated for 48 hrs by Hoechst 33342 staining based fluorescence based assay

[17] = test system: MDA-MB-231; test: Induction of apoptosis in human MDA-MB-231 cells assessed as early apoptotic cells at 9 uM incubated for 48 hrs by Annexin V-FITC/PI staining by flow cytometric analysis (reference value: 5%); assay type: functional
[18] = Effective permeability of the compound at pH 7.4 measured after 6 hrs by PAMPA assay; assay type: ADME; settings: read-out: Peff
[19] = Cytotoxicity against human AC10 cells incubated for 24 hrs by CellTiter-Glo Cell Viability Assay; assay type: cell-based; settings: AC10, 24 h
[20] = organism: Homo sapiens; test: Selectivity ratio of IC50 for human HDAC8 to IC50 for human HDAC6
[21] = biological target: Histone-lysine N-methyltransferase SUV39H2 (Homo sapiens) (UniProt Q9H5I1); test: Inhibition of human SUV39H2 at 100 uM using histone H3 as substrate incubated for 1 hr in presence of [3H]-SAM by filter binding method relative to control
Chain of Histone-lysine N-methyltransferase SUV39H2 (Homo sapiens) (Q9H5I1 whole entry): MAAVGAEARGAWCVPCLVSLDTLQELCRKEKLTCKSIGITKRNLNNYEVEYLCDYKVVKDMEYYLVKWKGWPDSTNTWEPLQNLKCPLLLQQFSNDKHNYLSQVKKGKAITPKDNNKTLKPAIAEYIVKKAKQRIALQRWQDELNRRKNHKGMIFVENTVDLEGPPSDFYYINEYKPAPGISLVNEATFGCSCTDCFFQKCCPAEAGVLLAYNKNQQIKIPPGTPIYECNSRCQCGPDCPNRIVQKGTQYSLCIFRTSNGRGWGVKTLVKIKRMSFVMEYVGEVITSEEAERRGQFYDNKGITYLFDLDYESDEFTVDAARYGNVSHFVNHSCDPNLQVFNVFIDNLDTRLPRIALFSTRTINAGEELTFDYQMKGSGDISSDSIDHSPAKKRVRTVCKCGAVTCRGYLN

[22] = biological target: Histone-lysine N-methyltransferase SETD7 (Homo sapiens) (UniProt Q8WTS6); test: Inhibition of human SET7/9 at 100 uM using core histone as substrate incubated for 1 hr in presence of [3H]-SAM by filter binding method relative to control
Chain of Histone-lysine N-methyltransferase SETD7 (Homo sapiens) (Q8WTS6 whole entry): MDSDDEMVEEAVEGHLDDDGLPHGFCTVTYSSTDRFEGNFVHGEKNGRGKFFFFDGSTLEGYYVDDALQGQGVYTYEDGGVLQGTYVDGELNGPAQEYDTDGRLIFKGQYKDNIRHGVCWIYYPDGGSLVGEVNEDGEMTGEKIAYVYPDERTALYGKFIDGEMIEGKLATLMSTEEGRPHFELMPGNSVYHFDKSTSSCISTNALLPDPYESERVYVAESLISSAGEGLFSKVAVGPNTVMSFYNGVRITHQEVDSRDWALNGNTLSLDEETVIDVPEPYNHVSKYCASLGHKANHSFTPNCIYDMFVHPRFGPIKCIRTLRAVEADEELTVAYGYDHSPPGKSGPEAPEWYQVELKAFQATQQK

## COc1ccc(CN2CCC(Nc3nc(Nc4ccc(NC(=O)CCCCCCC(=O)NO)cc4)nc4cc(OC)c(OC)cc34)CC2)cc1
[1]
  Activity: 8%
[2]
  Ratio IC50: 26 to 33
[3]
  microsomal CLint at 3 µM: 52.2 µL/min/mg
[4]
  IC50: 1.26 µM
[5]
  inhibition: 21%
[6]
  selectivity ratio: 15
[7]
  Activity: 11%
[8]
  EC50: 7.6 µM
[9]
  inhibition: 27%
[10]
  IC50: 1.81 µM
[11]
  EC50: 7.3 µM
[12]
  EC50: 4.6 µM
[13]
  IC50: 0.00257 µM
[14]
  inhibition: 25%
[15]
  Activity: 18%
[16]
  IC50: 0.508 µM
[17]
  Activity: 24%
[18]
  Papp at 6 h: 21.8 ×10⁻⁶ cm/s
[19]
  EC50: 94 µM
[20]
  Ratio IC50: 485
[21]
  inhibition: inactive
[22]
  inhibition: 19%
